Measurements reported in PubChem BioAssay AID1963970 (Molecular Pharmacology Branch, DTP, NCI, 2024).

System: 931267-113-T-J1-PDC multicell spheroid viability
Assay: Anticancer human tumor 931267-113-T-J1-PDC patient-derived colon adenocarcinoma cell line growth inhibition [PI3K]
Conditions: for IC50: curve of first compound; for viability, T/C: stronger effect = lower value; active = viability on the fitted dose curve at most 10% of control; inactive = the rest
Method in brief: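 Targeted small molecules plus PI3K inhibitors, half-log dose series from Cmax (default top 10 microM), were applied to heterotypic spheroids of cancer cells with HUVEC and MSCs. Viability indicated growth inhibition.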

[1] = second compound 0.0316 µM, first compound 0.0316 µM
[2] = second compound 0.0316 µM, first compound 0.1 µM
[3] = second compound 0.1 µM, first compound 0.0316 µM
[4] = second compound 0.1 µM, first compound 0.1 µM
[5] = second compound 0.316 µM, first compound 0.0316 µM
[6] = second compound 0.316 µM, first compound 0.1 µM
[7] = second compound 1 µM, first compound 0.0316 µM
[8] = second compound 1 µM, first compound 0.1 µM
[9] = second compound 3.16 µM, first compound 0.0316 µM
[10] = second compound 3.16 µM, first compound 0.1 µM
[11] = second compound 10 µM, first compound 0.0316 µM
[12] = second compound 10 µM, first compound 0.1 µM
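Note: viability read 7 days after compound addition.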

Cn1nccc1Nc1nccc(-c2ccn(C(CO)c3ccc(Cl)c(F)c3)c(=O)c2)n1 (centres undefined) + CC(Nc1ncnc2nc[nH]c12)c1cc2cccc(Cl)c2c(=O)n1-c1ccccc1
3.03 µM: IC50 (second compound 10 µM)
5.22 µM: IC50 (second compound 3.16 µM)
7.95 µM: IC50 (second compound 0.0316 µM)
6.96 µM: IC50 (second compound 1 µM)
7.53 µM: IC50 (second compound 0.1 µM)
7.72 µM: IC50 (second compound 0.316 µM)
inactive: viability, T/C [1] 105% | viability, T/C [2] 103% | viability, T/C (second compound 0.0316 µM, first compound 0.316 µM) 98.9% | viability, T/C (second compound 0.0316 µM, first compound 1 µM) 90.6% | viability, T/C (second compound 0.0316 µM, first compound 3.16 µM) 65.7% | viability, T/C (second compound 0.0316 µM, first compound 10 µM) 46.1% | viability, T/C [3] 111% | viability, T/C [4] 109% | viability, T/C (second compound 0.1 µM, first compound 0.316 µM) 92.7% | viability, T/C (second compound 0.1 µM, first compound 1 µM) 87.5% | viability, T/C (second compound 0.1 µM, first compound 3.16 µM) 64.6% | viability, T/C (second compound 0.1 µM, first compound 10 µM) 45% | viability, T/C [5] 107% | viability, T/C [6] 113% | viability, T/C (second compound 0.316 µM, first compound 0.316 µM) 100% | viability, T/C (second compound 0.316 µM, first compound 1 µM) 78.1% | viability, T/C (second compound 0.316 µM, first compound 3.16 µM) 76.4% | viability, T/C (second compound 0.316 µM, first compound 10 µM) 42.7% | viability, T/C [7] 114% | viability, T/C [8] 109% | viability, T/C (second compound 1 µM, first compound 0.316 µM) 92.6% | viability, T/C (second compound 1 µM, first compound 1 µM) 86.2% | viability, T/C (second compound 1 µM, first compound 3.16 µM) 70.3% | viability, T/C (second compound 1 µM, first compound 10 µM) 40.4% | viability, T/C [9] 109% | viability, T/C [10] 94.3% | viability, T/C (second compound 3.16 µM, first compound 0.316 µM) 87.5% | viability, T/C (second compound 3.16 µM, first compound 1 µM) 78% | viability, T/C (second compound 3.16 µM, first compound 3.16 µM) 63.3% | viability, T/C (second compound 3.16 µM, first compound 10 µM) 35.1% | viability, T/C [11] 88.2% | viability, T/C [12] 86.3% | viability, T/C (second compound 10 µM, first compound 0.316 µM) 79.6% | viability, T/C (second compound 10 µM, first compound 1 µM) 77.4% | viability, T/C (second compound 10 µM, first compound 3.16 µM) 48.4% | viability, T/C (second compound 10 µM, first compound 10 µM) 27.4%

Cn1ncnc1[C@H]1c2n[nH]c(=O)c3cc(F)cc(c23)N[C@@H]1c1ccc(F)cc1 + CC(Nc1ncnc2nc[nH]c12)c1cc2cccc(Cl)c2c(=O)n1-c1ccccc1
> 0.1 µM: IC50 (second compound 0.0316 µM) | IC50 (second compound 0.1 µM) | IC50 (second compound 0.316 µM) | IC50 (second compound 1 µM) | IC50 (second compound 3.16 µM) | IC50 (second compound 10 µM)
inactive: viability, T/C (second compound 0.0316 µM, first compound 0.000316 µM) 105% | viability, T/C (second compound 0.0316 µM, first compound 0.001 µM) 102% | viability, T/C (second compound 0.0316 µM, first compound 0.00316 µM) 102% | viability, T/C (second compound 0.0316 µM, first compound 0.01 µM) 99.6% | viability, T/C [1] 114% | viability, T/C [2] 103% | viability, T/C (second compound 0.1 µM, first compound 0.000316 µM) 117% | viability, T/C (second compound 0.1 µM, first compound 0.001 µM) 112% | viability, T/C (second compound 0.1 µM, first compound 0.00316 µM) 96% | viability, T/C (second compound 0.1 µM, first compound 0.01 µM) 98.5% | viability, T/C [3] 111% | viability, T/C [4] 95.3% | viability, T/C (second compound 0.316 µM, first compound 0.000316 µM) 110% | viability, T/C (second compound 0.316 µM, first compound 0.001 µM) 113% | viability, T/C (second compound 0.316 µM, first compound 0.00316 µM) 110% | viability, T/C (second compound 0.316 µM, first compound 0.01 µM) 102% | viability, T/C [5] 108% | viability, T/C [6] 106% | viability, T/C (second compound 1 µM, first compound 0.000316 µM) 109% | viability, T/C (second compound 1 µM, first compound 0.001 µM) 108% | viability, T/C (second compound 1 µM, first compound 0.00316 µM) 101% | viability, T/C (second compound 1 µM, first compound 0.01 µM) 100% | viability, T/C [7] 100% | viability, T/C [8] 104% | viability, T/C (second compound 3.16 µM, first compound 0.000316 µM) 104% | viability, T/C (second compound 3.16 µM, first compound 0.001 µM) 101% | viability, T/C (second compound 3.16 µM, first compound 0.00316 µM) 99.4% | viability, T/C (second compound 3.16 µM, first compound 0.01 µM) 97.6% | viability, T/C [9] 112% | viability, T/C [10] 93.3% | viability, T/C (second compound 10 µM, first compound 0.000316 µM) 103% | viability, T/C (second compound 10 µM, first compound 0.001 µM) 94.6% | viability, T/C (second compound 10 µM, first compound 0.00316 µM) 87.4% | viability, T/C (second compound 10 µM, first compound 0.01 µM) 98.8% | viability, T/C [11] 100% | viability, T/C [12] 88.1%
